We go through 13 compounds from ChEMBL document CHEMBL4732202, “Identification and Profiling of a Novel Diazaspiro[3.4]octane Chemical Series Active against Multiple Stages of the Human Malaria Parasite Plasmodium falciparum and Optimization Efforts” (J Med Chem, 2021).

SMILES strings stand for the structures.

One data set in a line: Half life in human liver microsomes at 0.1 uM in presence or absence of NADPH by LC-MS/MS analysis. The class given is ADME, Microsome.
As usually defined, the half-life is the time in which the quantity being followed falls by half. Read a low half-life as fast loss. `O=C(Cc1ccc(O)c(F)c1)N1CC(CNc2ccc(F)cc2)C2(C1)CN(c1ccc(F)cc1)C2` (racemic) showed a half-life at 0.1 µM of 17 min.
As for `O=C(Cc1ccc(O)c(Cl)c1)N1CC(CNc2ccc(F)cc2)C2(C1)CN(c1ccc(F)cc1)C2` (racemic), the half-life at 0.1 µM turned out to be 22 min. The half-life at 0.1 µM values of the last two compounds are within 1.5-fold of each other.
`O=C(N1CC(CNc2ccc(F)cc2)C2(C1)CN(c1cc(F)cc(F)c1)C2)C(F)(F)c1ccc(O)c(C(F)(F)F)c1` (racemic) had a half-life at 0.1 µM of 18 min.
In the case of `O=C(Cc1ncc(O)cn1)N1CC(CNc2ccc(F)cc2)C2(C1)CN(c1cc(F)cc(F)c1)C2` (racemic), the half-life at 0.1 µM stood at 64 min.
Compound `N#Cc1cc(CC(=O)N2CC(CNc3ccc(F)cc3)C3(C2)CN(c2cc(F)cc(F)c2)C3)ccc1O` (racemic) registered a half-life at 0.1 µM of 27 min.
On the same count and under the same terms, the figure for `O=C(N1CC(CNc2ccc(F)cc2)C2(C1)CN(c1cc(F)cc(F)c1)C2)C(F)(F)c1ccc(O)cc1` (racemic) is 23 min; for `NC(=O)c1cc(CC(=O)N2CC(CNc3ccc(F)cc3)C3(C2)CN(c2cc(F)cc(F)c2)C3)ccc1O` (racemic) it is 11 min.
Same read-out and setting: the value for `O=C(Cc1cc[n+]([O-])cc1)N1CC(CNc2ccc(F)cc2)C2(C1)CN(c1cc(F)cc(F)c1)C2` (racemic) was 150 min.
In turn, `O=C(Cc1ccc(C(F)F)cc1)N1CC(CNc2ccc(F)cc2)C2(C1)CN(c1ccc(F)cc1)C2` (racemic) returned a half-life at 0.1 µM of 7.6 min.
Still for that read-out and setting: the value for `O=C(Cc1ccnc(O)c1)N1CC(CNc2ccc(F)cc2)C2(C1)CN(c1cc(F)cc(F)c1)C2` (racemic) was 12 min.
Compound `O=C(Cc1ccc(O)c(C(F)(F)F)c1)N1CC(CNc2ccc(F)cc2)C2(C1)CN(c1cc(F)cc(F)c1)C2` (racemic) showed a half-life at 0.1 µM of 15 min.
Consider `O=C(Cc1ccc(O)nc1)N1CC(CNc2ccc(F)cc2)C2(C1)CN(c1cc(F)cc(F)c1)C2` (racemic), for which the half-life at 0.1 µM is 21 min.
Compound `O=C(Cc1ccc(O)cn1)N1CC(CNc2ccc(F)cc2)C2(C1)CN(c1cc(F)cc(F)c1)C2` (racemic) showed a half-life at 0.1 µM of 12 min.

The nature of another data set: Half life in rat liver microsomes at 0.1 uM in presence or absence of NADPH by LC-MS/MS analysis. The class given is ADME, Microsome. For orientation: Liver microsomes are a subcellular fraction often used to study metabolism.
Regarding `O=C(Cc1ccc(O)c(F)c1)N1CC(CNc2ccc(F)cc2)C2(C1)CN(c1ccc(F)cc1)C2` (racemic), the half-life at 0.1 µM worked out at 14 min.
For `O=C(Cc1ccc(O)c(Cl)c1)N1CC(CNc2ccc(F)cc2)C2(C1)CN(c1ccc(F)cc1)C2` (racemic), the half-life at 0.1 µM was determined as 25 min.
For the compound `O=C(N1CC(CNc2ccc(F)cc2)C2(C1)CN(c1cc(F)cc(F)c1)C2)C(F)(F)c1ccc(O)c(C(F)(F)F)c1` (racemic), the half-life at 0.1 µM was 7 min. This half-life at 0.1 µM is about 3.6-fold lower than that of the compound before.
On the same count and under the same terms, the value for `O=C(Cc1ncc(O)cn1)N1CC(CNc2ccc(F)cc2)C2(C1)CN(c1cc(F)cc(F)c1)C2` (racemic) was 68 min.
`N#Cc1cc(CC(=O)N2CC(CNc3ccc(F)cc3)C3(C2)CN(c2cc(F)cc(F)c2)C3)ccc1O` (racemic): the half-life at 0.1 µM is 31 min. This half-life at 0.1 µM is about 2.2-fold lower than that of the compound before.
For the compound `O=C(N1CC(CNc2ccc(F)cc2)C2(C1)CN(c1cc(F)cc(F)c1)C2)C(F)(F)c1ccc(O)cc1` (racemic), the half-life at 0.1 µM came to 11 min.
`NC(=O)c1cc(CC(=O)N2CC(CNc3ccc(F)cc3)C3(C2)CN(c2cc(F)cc(F)c2)C3)ccc1O` (racemic) displayed a half-life at 0.1 µM of 8 min.
As for `O=C(Cc1cc[n+]([O-])cc1)N1CC(CNc2ccc(F)cc2)C2(C1)CN(c1cc(F)cc(F)c1)C2` (racemic), the half-life at 0.1 µM was found to be 150 min.
For the compound `O=C(Cc1ccc(C(F)F)cc1)N1CC(CNc2ccc(F)cc2)C2(C1)CN(c1ccc(F)cc1)C2` (racemic), the half-life at 0.1 µM was determined as 7.6 min.
`O=C(Cc1ccnc(O)c1)N1CC(CNc2ccc(F)cc2)C2(C1)CN(c1cc(F)cc(F)c1)C2` (racemic) yielded a half-life at 0.1 µM of 20 min.
`O=C(Cc1ccc(O)c(C(F)(F)F)c1)N1CC(CNc2ccc(F)cc2)C2(C1)CN(c1cc(F)cc(F)c1)C2` (racemic) returned a half-life at 0.1 µM of 16 min.
`O=C(Cc1ccc(O)nc1)N1CC(CNc2ccc(F)cc2)C2(C1)CN(c1cc(F)cc(F)c1)C2` (racemic) showed a half-life at 0.1 µM of 52 min.
Compound `O=C(Cc1ccc(O)cn1)N1CC(CNc2ccc(F)cc2)C2(C1)CN(c1cc(F)cc(F)c1)C2` (racemic) displayed a half-life at 0.1 µM of 12 min.

A further data set is described as follows: Half life in mouse liver microsomes at 0.1 uM in presence or absence of NADPH by LC-MS/MS analysis. It counts as ADME, Microsome.
For `O=C(Cc1ccc(O)c(F)c1)N1CC(CNc2ccc(F)cc2)C2(C1)CN(c1ccc(F)cc1)C2` (racemic), the half-life at 0.1 µM worked out at 13 min.
As for `O=C(Cc1ccc(O)c(Cl)c1)N1CC(CNc2ccc(F)cc2)C2(C1)CN(c1ccc(F)cc1)C2` (racemic), the half-life at 0.1 µM was determined as 16 min.
Compound `O=C(N1CC(CNc2ccc(F)cc2)C2(C1)CN(c1cc(F)cc(F)c1)C2)C(F)(F)c1ccc(O)c(C(F)(F)F)c1` (racemic) registered a half-life at 0.1 µM of 16 min.
Turning to `O=C(Cc1ncc(O)cn1)N1CC(CNc2ccc(F)cc2)C2(C1)CN(c1cc(F)cc(F)c1)C2` (racemic), the half-life at 0.1 µM turned out to be 67 min.
The compound `N#Cc1cc(CC(=O)N2CC(CNc3ccc(F)cc3)C3(C2)CN(c2cc(F)cc(F)c2)C3)ccc1O` (racemic) registered a half-life at 0.1 µM of 70 min.
In turn, `O=C(N1CC(CNc2ccc(F)cc2)C2(C1)CN(c1cc(F)cc(F)c1)C2)C(F)(F)c1ccc(O)cc1` (racemic) had a half-life at 0.1 µM of 12 min. Against the preceding compound, the half-life at 0.1 µM is about 5.8-fold lower.
In turn, `NC(=O)c1cc(CC(=O)N2CC(CNc3ccc(F)cc3)C3(C2)CN(c2cc(F)cc(F)c2)C3)ccc1O` (racemic) came in with a half-life at 0.1 µM of 21 min.
On to `O=C(Cc1cc[n+]([O-])cc1)N1CC(CNc2ccc(F)cc2)C2(C1)CN(c1cc(F)cc(F)c1)C2` (racemic), for which the half-life at 0.1 µM was found to be 150 min.
Regarding `O=C(Cc1ccc(C(F)F)cc1)N1CC(CNc2ccc(F)cc2)C2(C1)CN(c1ccc(F)cc1)C2` (racemic), the half-life at 0.1 µM was determined as 6.6 min. Against the preceding compound, the half-life at 0.1 µM is about 23-fold lower.
For the compound `O=C(Cc1ccnc(O)c1)N1CC(CNc2ccc(F)cc2)C2(C1)CN(c1cc(F)cc(F)c1)C2` (racemic), the half-life at 0.1 µM is 17 min.
Still for that read-out and setting: the value for `O=C(Cc1ccc(O)c(C(F)(F)F)c1)N1CC(CNc2ccc(F)cc2)C2(C1)CN(c1cc(F)cc(F)c1)C2` (racemic) was 24 min.
`O=C(Cc1ccc(O)nc1)N1CC(CNc2ccc(F)cc2)C2(C1)CN(c1cc(F)cc(F)c1)C2` (racemic) returned a half-life at 0.1 µM of 17 min.
With `O=C(Cc1ccc(O)cn1)N1CC(CNc2ccc(F)cc2)C2(C1)CN(c1cc(F)cc(F)c1)C2` (racemic), the half-life at 0.1 µM came to 11 min.
